The record followed here is patent publication US20240245677A1, “SELECTED COMPOUNDS FOR TARGETED DEGRADATION OF BRD9” (C4 THERAPEUTICS, INC., priority 2021, published 2024).

The structures appear in SMILES notation.

In data set [1] the test system is SW982 cells. The experiment in a line: SW982 in vitro viability assay (CellTiter-Glo, 144 hours). Format: cell-based, human. On the procedure: SW982 cells were obtained from ATCC (Catalog No. HTB-93, Manassas, VA, USA) and maintained in DMEM medium (Catalog No. 12430112, ThermoFisher Scientific, Waltham, MA, USA) supplemented with 10% fetal bovine serum (FBS) (Catalog No. 16000-044, Gibco, Grand Island, NY, USA) at 37° C. in an atmosphere of 5% CO2 in air. The cells were routinely sub-cultured to maintain cell density between 3×10^5-1.5×10^6 cells/mL, not to exceed 20 passages. The cells growing in an exponential growth phase were harvested by centrifugation at 1000 rpm and resuspended in fresh growth media. An aliquot was diluted 2× with Trypan Blue solution 0.4% (Catalog No. 15250061, ThermoFisher Scientific, Waltham, MA, USA) and cell count was determined. Cell concentration was adjusted with growth media to 1.0×10^4 cells/mL.
Compound 1 was prepared by dissolving neat compound in DMSO (Catalog No. D8418, Sigma-Aldrich, Inc., St. Louis, MO, USA) to generate 10 mM stock solution and stored at −20° C. 10 mM DMSO stock solution was serially diluted (half log) in DMSO to generate 10-point dose series (10000, 3160, 1000, 316, 100, 31.6, 10, 3.16, 1, 0.32 μM) in acoustic ready 384-well low dead volume microplates (Catalog No. LP-0200, Beckman Coulter Life Sciences, Indianapolis, IN, USA). 50 nL of serially diluted compound solutions were dispensed using the Echo 550 Acoustic Liquid Handler Handler (Beckman Coulter Life Sciences, Indianapolis, IN, USA) in duplicate to each 384-well black TC-treated microplate (Catalog No. 3571, Corning, Glendale, CA, USA). 50 nL DMSO was transferred to all control wells.
50 μL SW982 cells suspended in growth media at 1.0×10^4 cells/mL (500 cells/well) were dispensed using a Multidrop Combi Reagent Dispenser (Catalog No. 5840300, ThermoFisher Scientific, Waltham, MA, USA) to each well of 384-well black TC-treated microplates containing duplicate concentration range of test compounds and DMSO controls. Plates were spun briefly at 1000 rpm and cells were incubated at 37° C., 5% CO2 for 144 hours. Final concentration of DMSO was 0.1% for all samples.
Additional cell plates (TO plates) were prepared by dispensing cells into a blank 384-well black TC-treated microplate to represent cytostatic controls and processed for viability detection immediately after cell dispensing.
SW982 cell viability was determined based on quantification of ATP using CellTiter-Glo® 2.0 luminescent assay kit (Catalog No. G9243, Promega, Madison, WI, USA), which signals the presence of metabolically active cells. On Day 0 (Time 0) and Day 6 (144 hours) 25 μL CellTiter-Glo® reagent was added to each well of cell plates except the wells in column 24 and the luminescence was measured after 4 hours incubation at room temperature using an EnVision® Multilabel Reader (Catalog No. 2104-0010, Perkin Elmer Inc., Dumfries, VA, USA). Column 24 (cells without CellTiter-Glo® addition) was used as plate background or positive control (P). Cytostatic control value (CT0) was computed from TO plate read using untreated cell signals (UT=0) and positive control signals (PT=0) as below.
Percent response of compound-treated samples at a time point T were calculated by normalizing the signal with P and DMSO treated negative (N) controls on the same microtiter plate and the CT0 control:
The Response % is thus 100% if the CellTiter-Glo® signal equals that of the DMSO treated controls (i.e., normal cell growth), 0% if it equals that of untreated cell at TO (i.e., cytostasis), and −100% if it equals the no CellTiter-Glo® reagent controls (i.e., complete cytotoxicity).
Curve fit and GI50 determination was performed by 4 parametric logistic fit analysis using software such as GraphPad Prism software (GraphPad Software, LLC, San Diego, CA, USA). The fit was performed through minimization of the root mean squared error between observed and calculated values of the four-parameter logistic equation using the simplex optimizer of the Apache Commons Math library. […]
(ATP-based viability assays read luminescence as a measure of living cells.)

Data set [2] in a line: Crystallization at room temperature by slow evaporation. Format: physicochemical. On the procedure: Based on approximate solubility results, about 10 mg of Compound 1 free form Pattern E was dissolved in suitable amount of solvents. Obtained suspensions or solutions were centrifuged. […] Solid residues were examined for their polymorphic form.
Data set [3] can be described thus: Crystallization by heat-cool DSC. The class given is physicochemical. Conditions: Cycle 2: 30 to 180° C. at 10° C./min; 180 to −20° C. at 2° C./min; re-heat to 250° C. at 10° C./min. On the procedure:
Polymorphic behavior of Compound 1 free form was investigated by two different heat-cool DSC cycles using free form Pattern E. A Tzero pan and a Tzero hermetic lid with a pin hole were used for this experiment. Cycle 1: 30° C. to 180° C. at 10° C./min; 180° C. to −20° C. at 20° C./min; reheat to 250° C. at 10° C./min. Cycle 2: 30° C. to 180° C. at 10° C./min; 180° C. to −20° C. at 2° C./min; reheat to 250° C. at 10° C./min.

The viability is a read-out of living cells in per cent, often relative to untreated cells. Broadly, the GI50 is the concentration that inhibits growth by half. As to `COc1cc(-c2cn(C)c(=O)c(C)c2C)cc(OC)c1CN1CC[C@H](N2CCN(c3ccc(N[C@H]4CCC(=O)NC4=O)cc3F)CC2)C(F)(F)C1` [Compound 1, (S)-3-((4-(4-((S)-1-(2,6-dimethoxy-4-(1,4,5-trimethyl-6-oxo-1,6-dihydropyridin-3-yl)benzyl)-3,3-difluoropiperidin-4-yl)piperazin-1-yl)-3-fluorophenyl)amino)-piperidine-2,6-dione], in data set [1] (Homo sapiens, SW982, 144 h, 0.318 nM, read-out: % SW982 Viability Relative to Vehicle Control at 144 hr, Mean), the viability at 0.000318 µM amounted to 96.2%. Moreover, in data set [1] (Homo sapiens, SW982, 144 h, 1.01 nM, read-out: % SW982 Viability Relative to Vehicle Control at 144 hr, Mean), the viability at 0.00101 µM was 99.6%. Also, the viability at 0.00317 µM in data set [1] (Homo sapiens, SW982, 144 h, 3.17 nM, read-out: % SW982 Viability Relative to Vehicle Control at 144 hr, Mean) turned out to be 97.2%. The viability at 0.01 µM in data set [1] (Homo sapiens, SW982, 144 h, 10.0 nM, read-out: % SW982 Viability Relative to Vehicle Control at 144 hr, Mean) turned out to be 101%. Further, the viability at 0.0317 µM in data set [1] (Homo sapiens, SW982, 144 h, 31.7 nM, read-out: % SW982 Viability Relative to Vehicle Control at 144 hr, Mean) came to 95.7%. In data set [1] (Homo sapiens, SW982, 144 h, 100 nM, read-out: % SW982 Viability Relative to Vehicle Control at 144 hr, Mean), the viability at 0.1 µM was determined as 96.4%. Further, the viability at 0.317 µM in data set [1] (Homo sapiens, SW982, 144 h, 317 nM, read-out: % SW982 Viability Relative to Vehicle Control at 144 hr, Mean) came out at 91.9%. In addition, the viability at 1 µM in data set [1] (Homo sapiens, SW982, 144 h, 1000 nM, read-out: % SW982 Viability Relative to Vehicle Control at 144 hr, Mean) stood at 88.6%. Besides, the viability at 3.161 µM in data set [1] (Homo sapiens, SW982, 144 h, 3161 nM, read-out: % SW982 Viability Relative to Vehicle Control at 144 hr, Mean) turned out to be 85.7%. Also, the viability at 9.99 µM in data set [1] (Homo sapiens, SW982, 144 h, 9990 nM, read-out: % SW982 Viability Relative to Vehicle Control at 144 hr, Mean) was determined as 84.2%. The 50% growth inhibitory concentration (GI50) in data set [1] (Homo sapiens, SW982 cells, 144-hour treatment, read-out: Geometric Mean GI50) is above 10 µM. In addition, in data set [1] (Homo sapiens, SW982 cells, 144-hour treatment, read-out: Mean Emax (%) ± SD), the Emax was determined as 84.2 ± 4.6%. Further, the “growth inhibition at the highest concentration tested” value in data set [1] (SW982 cells, 144-hour treatment) is given as below 20%. Besides, the Comments result in data set [2] (slow evaporation at room temperature, 1,4-dioxane) is recorded as “Gel-like sample”; in data set [2] (slow evaporation at room temperature, 2-MeTHF), “Gel-like sample”; in data set [2] (slow evaporation at room temperature, Ethanol) it was “Gel-like sample”; in data set [2] (slow evaporation at room temperature, THF), “Jelly-like sample”. The XRPD entry in data set [2] (slow evaporation at room temperature, Acetonitrile) is given as “Pattern A”; in data set [2] (slow evaporation at room temperature, Ethyl acetate), “Pattern F”. Further, the “Thermal events: Glass transition” value in data set [3] is on record as “Glass transition: 135.7° C.; Delta Cp:”.
